Measurements from US6545155B2, “Fused heteroaromatic glucokinase activators” (Hoffmann-La Roche Inc., priority 2000, dated 2003).

System: C57BL/6J mice
Assay: Glucokinase activator in vivo screen protocol (blood glucose after oral dosing)
Details: administered orally, 50 mg/kg, C57BL/6J mice fasted two hours, blood glucose vs vehicle over six hours post dose
Procedure: (Glucokinase Activator in Vivo Screen Protocol
C57BL/6J mice are orally dosed via gavage with Glucokinase (GK) activator at 50 mg/kg body weight following a two hour fasting period. Blood glucose determinations are made five times during the six hour post-dose study period.
Mice (n=6) are weighed and fasted for a two hour period prior to oral treatment. GK activators are formulated at 6.76 mg/ml in Gelucire vehicle (Ethanol:Gelucire44/14:PEG400q.s. 4:66:30 v/w/v. Mice are dosed orally with 7.5 μL formulation per gram of body weight to equal a 50 mg/kg dose. Immediately prior to dosing, a pre dose (time zero) blood glucose reading is acquired by snipping off a small portion of the animals tail (˜1 mm) and collecting 15 μL blood into a heparinized capillary tube for analysis. Following GK activator administration, additional blood glucose readings are taken at 1, 2, 4, and 6 hours post dose from the same tail wound. Results are interpreted by comparing the mean blood glucose values of six vehicle treated mice with six GK activator treated mice over the six hour study duration.

Row | SMILES | glucokinase activator in vivo activity
1 | CS(=O)(=O)c1ccc(C(CC2CCCC2)C(=O)Nc2nc3ccccc3[nH]2)cc1Cl (stereo not drawn) [Example 20, N-(1H-Benzoimidazol-2-yl)-2-(3-chloro-4-methanesulfonyl-phenyl)-3-cyclopentyl-propionamide] | excellent glucokinase activator in vivo activity
2 | CS(=O)(=O)c1ccc([C@@H](CC2CCCC2)C(=O)Nc2nc3ccccc3s2)cc1Cl [Example 19, N-Benzothiazol-2-yl-2(R)-(3-chloro-4-methanesulfonyl-phenyl)-3-cyclopentyl-propionamide] | excellent glucokinase activator in vivo activity
3 | CS(=O)(=O)c1ccc(C(CC2CCCC2)C(=O)Nc2ccc3ccccc3n2)cc1Cl (stereo not drawn) [Example 22, 2-(3-Chloro-4-methanesulfonyl-phenyl)-3-cyclopentyl-N-quinolin-2-yl-propionamide] | excellent glucokinase activator in vivo activity
